According to US20260022142A1, “MACROCYCLIC IMMUNOMODULATORS” (Bristol-Myers Squibb Company, priority 2022, published 2026):
pIC50: −log10 of the molar value. Bridge positions count the residues as written; N and C are the ends. Square brackets hold non-standard residues; d marks the D form. Peptide text beside a SMILES is read from it. * marks the point of attachment. ξ: configuration not given here. Phe(4-COOH) = N[C@@H](Cc1ccc(C(=O)O)cc1)C(=O)O; Bip = N[C@@H](Cc1ccc(-c2ccccc2)cc1)C(=O)O; Phe(3-Me) = Cc1cccc(C[C@H](N)C(=O)O)c1; ξBip = NC(Cc1ccc(-c2ccccc2)cc1)C(=O)O; 4Pal = N[C@@H](Cc1ccncc1)C(=O)O; Cha = N[C@@H](CC1CCCCC1)C(=O)O; Cit = NC(=O)NCCC[C@H](N)C(=O)O; Carboxymethyl = O=C(O)C*; Orn = NCCC[C@H](N)C(=O)O; Aun = NCCCCCCCCCCC(=O)O; Dab = NCC[C@H](N)C(=O)O; Dap = NC[C@H](N)C(=O)O; ξD = NC(CC(=O)O)C(=O)O; AEEA = NCCOCCOCC(=O)O

target: T1, PD-1/PD-L1 interaction (PE-labeled human PD-L1-Ig binding to Jurkat cell line over-expressing human PD-1) (Homo sapiens, UniProt Q15116); test: Jurkat-PD-1 Cell Binding High-Content Screening Assay (CBA); type: cell-based; conditions: Jurkat cell line over-expressing human PD-1; PE-labeled PD-L1-Ig 20 nM final; read-out: Jurkat hPD1-PDL1 IC50
T1 construct: expressed in transfected cells; host or cells: Jurkat
Outline: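 Jurkat cells over-expressing human PD-1 (8×10^3 per well, DMEM/10% FCS) preincubated with compound 2 h at 37° C, then PE-labeled human PD-L1-Ig (20 nM final) added for 1 h. Cells fixed with paraformaldehyde, Hoechst-stained, and bound fluorescence quantified by high-content imaging.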

T1 sequence (Q15116 25-288): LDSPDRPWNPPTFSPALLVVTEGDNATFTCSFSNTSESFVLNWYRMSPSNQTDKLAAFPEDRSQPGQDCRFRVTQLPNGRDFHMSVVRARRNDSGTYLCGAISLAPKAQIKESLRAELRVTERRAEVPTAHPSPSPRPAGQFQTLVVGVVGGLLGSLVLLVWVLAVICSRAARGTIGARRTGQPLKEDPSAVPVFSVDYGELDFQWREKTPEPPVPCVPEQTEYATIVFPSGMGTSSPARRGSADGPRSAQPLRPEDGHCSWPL

Cc1cccc(C[C@@H]2NC(=O)C(CC(=O)O)NC(=O)[C@H](Cc3ccc(OCC(=O)O)cc3)NC(=O)[C@H](CN)NC(=O)CSC[C@@H](C(=O)NCCOCCOCC(=O)N[C@@H](CN)C(=O)NCCCCCCCCCCC(=O)O)NC(=O)[C@H]([C@@H](C)O)NC(=O)[C@H](C(C)C)NC(=O)[C@H](CC3CCCCC3)NC(=O)[C@H](CCN)NC(=O)[C@@H](CC(C)C)NC(=O)[C@H](CCCN)NC(=O)[C@H](CCCNC(N)=O)NC(=O)C(Cc3ccc(-c4ccccc4)cc3)NC(=O)[C@H](C(C)C)NC2=O)c1 (stereo partly drawn) [Compound 1176] ({CH2CO}-[Dap]Y(Carboxymethyl)[ξD][Phe(3-Me)]V[ξBip][Cit][Orn][dL][Dab][Cha]VTC[AEEA][Dap][Aun]-OH; thioether N-14) and Cc1cccc(C[C@@H]2NC(=O)C(CC(=O)O)NC(=O)[C@H](Cc3ccc(OCC(=O)O)cc3)NC(=O)[C@H](CN)NC(=O)CSC[C@@H](C(=O)NCCOCCOCC(=O)N[C@@H](CCN)C(=O)NCCCCCCCCCCC(=O)O)NC(=O)[C@H]([C@@H](C)O)NC(=O)[C@H](C(C)C)NC(=O)[C@H](CC3CCCCC3)NC(=O)[C@H](CCN)NC(=O)[C@@H](CC(C)C)NC(=O)[C@H](CCCN)NC(=O)[C@H](CCCNC(N)=O)NC(=O)C(Cc3ccc(-c4ccccc4)cc3)NC(=O)[C@H](C(C)C)NC2=O)c1 (stereo partly drawn) [Compound 1177] ({CH2CO}-[Dap]Y(Carboxymethyl)[ξD][Phe(3-Me)]V[ξBip][Cit][Orn][dL][Dab][Cha]VTC[AEEA][Dab][Aun]-OH; thioether N-14) are within 0.2 log units of each other in pIC50: 8.14 for the first, 8.08 for the second.

Cc1cccc(C[C@@H]2NC(=O)C(CC(=O)O)NC(=O)[C@H](Cc3ccc(OCC(=O)O)cc3)NC(=O)[C@H](CN)NC(=O)CSC[C@@H](C(=O)NCCOCCOCC(=O)N[C@@H](CCCN)C(=O)NCCCCCCCCCCC(=O)O)NC(=O)[C@H]([C@@H](C)O)NC(=O)[C@H](C(C)C)NC(=O)[C@H](CC3CCCCC3)NC(=O)[C@H](CCN)NC(=O)[C@@H](CC(C)C)NC(=O)[C@H](CCCN)NC(=O)[C@H](CCCNC(N)=O)NC(=O)C(Cc3ccc(-c4ccccc4)cc3)NC(=O)[C@H](C(C)C)NC2=O)c1 (stereo partly drawn) [Compound 1178] ({CH2CO}-[Dap]Y(Carboxymethyl)[ξD][Phe(3-Me)]V[ξBip][Cit][Orn][dL][Dab][Cha]VTC[AEEA][Orn][Aun]-OH; thioether N-14) and Cc1cccc(C[C@@H]2NC(=O)C(CC(=O)O)NC(=O)[C@H](Cc3ccc(OCC(=O)O)cc3)NC(=O)[C@H](CN)NC(=O)CSC[C@@H](C(=O)NCCOCCOCC(=O)N[C@@H](CCCCN)C(=O)NCCCCCCCCCCC(=O)O)NC(=O)[C@H]([C@@H](C)O)NC(=O)[C@H](C(C)C)NC(=O)[C@H](CC3CCCCC3)NC(=O)[C@H](CCN)NC(=O)[C@@H](CC(C)C)NC(=O)[C@H](CCCN)NC(=O)[C@H](CCCNC(N)=O)NC(=O)C(Cc3ccc(-c4ccccc4)cc3)NC(=O)[C@H](C(C)C)NC2=O)c1 (stereo partly drawn) [Compound 1179] ({CH2CO}-[Dap]Y(Carboxymethyl)[ξD][Phe(3-Me)]V[ξBip][Cit][Orn][dL][Dab][Cha]VTC[AEEA]K[Aun]-OH; thioether N-14) are within 0.2 log units of each other in pIC50: 8.01 for the first, 7.99 for the second.

Cc1cccc(C[C@@H]2NC(=O)C(CC(=O)O)NC(=O)[C@H](Cc3ccc(OCC(=O)O)cc3)NC(=O)[C@H](CN)NC(=O)CSC[C@@H](C(=O)NCCOCCOCC(=O)N[C@@H](CCCNC(=N)N)C(=O)NCCCCCCCCCCC(=O)O)NC(=O)[C@H]([C@@H](C)O)NC(=O)[C@H](C(C)C)NC(=O)[C@H](CC3CCCCC3)NC(=O)[C@H](CCN)NC(=O)[C@@H](CC(C)C)NC(=O)[C@H](CCCN)NC(=O)[C@H](CCCNC(N)=O)NC(=O)C(Cc3ccc(-c4ccccc4)cc3)NC(=O)[C@H](C(C)C)NC2=O)c1 (stereo partly drawn) [Compound 1180] ({CH2CO}-[Dap]Y(Carboxymethyl)[ξD][Phe(3-Me)]V[ξBip][Cit][Orn][dL][Dab][Cha]VTC[AEEA]R[Aun]-OH; thioether N-14) and Cc1cccc(C[C@@H]2NC(=O)C(CC(=O)O)NC(=O)[C@H](Cc3ccc(OCC(=O)O)cc3)NC(=O)[C@H](CN)NC(=O)CSC[C@@H](C(=O)N[C@@H](CN)C(=O)NCCCCCCCCCCC(=O)O)NC(=O)[C@H]([C@@H](C)O)NC(=O)[C@H](C(C)C)NC(=O)[C@H](CC3CCCCC3)NC(=O)[C@H](CCN)NC(=O)[C@@H](CC(C)C)NC(=O)[C@H](CCCN)NC(=O)[C@H](CCCNC(N)=O)NC(=O)C(Cc3ccc(-c4ccccc4)cc3)NC(=O)[C@H](C(C)C)NC2=O)c1 (stereo partly drawn) [Compound 1181] ({CH2CO}-[Dap]Y(Carboxymethyl)[ξD][Phe(3-Me)]V[ξBip][Cit][Orn][dL][Dab][Cha]VTC[Dap][Aun]-OH; thioether N-14) are within 0.2 log units of each other in pIC50: 7.74 for the first, 7.93 for the second.

Going from CC[C@H](C)[C@@H]1NC(=O)[C@H](Cc2ccc(-c3ccccc3)cc2)NC(=O)[C@H](C(C)C)NC(=O)[C@H](Cc2cccc(C)c2)NC(=O)[C@H](CC(=O)O)NC(=O)[C@H](Cc2ccc(C(=O)O)cc2)NC(=O)[C@H](Cc2ccncc2)NC(=O)CSC[C@@H](C(=O)NCCOCCOCC(=O)NCCCCCCCCCCC(=O)O)NC(=O)[C@H]([C@@H](C)O)NC(=O)[C@H](C(C)C)NC(=O)[C@H](CC2CCCCC2)NC(=O)[C@H](CCN)NC(=O)[C@@H](CC(C)C)NC(=O)[C@H](CCCN)NC1=O [Compound 1182] to CC[C@H](C)[C@@H]1NC(=O)[C@H](Cc2ccc(-c3ccccc3)cc2)NC(=O)[C@H](C(C)C)NC(=O)[C@H](Cc2cccc(C)c2)NC(=O)[C@H](CC(=O)O)NC(=O)[C@H](Cc2ccc(C(=O)O)cc2)NC(=O)[C@H](Cc2ccncc2)NC(=O)CSC[C@@H](C(=O)NCCOCCOCC(=O)N[C@@H](CN)C(=O)NCCCCCCCCCCC(=O)O)NC(=O)[C@H]([C@@H](C)O)NC(=O)[C@H](C(C)C)NC(=O)[C@H](CC2CCCCC2)NC(=O)[C@H](CCN)NC(=O)[C@@H](CC(C)C)NC(=O)[C@H](CCCN)NC1=O [Compound 1188] ({CH2CO}-[4Pal][Phe(4-COOH)]D[Phe(3-Me)]V[Bip]I[Orn][dL][Dab][Cha]VTC[AEEA][Dap][Aun]-OH; thioether N-14), the pIC50 falls from 7.36 to 6.83 (0.53 log units).

CC[C@H](C)[C@@H]1NC(=O)[C@H](Cc2ccc(-c3ccccc3)cc2)NC(=O)[C@H](C(C)C)NC(=O)[C@H](Cc2cccc(C)c2)NC(=O)[C@H](CC(=O)O)NC(=O)[C@H](Cc2ccc(C(=O)O)cc2)NC(=O)[C@H](Cc2ccncc2)NC(=O)CSC[C@@H](C(=O)N[C@@H](CCCN)C(=O)NCCCCCCCCCCC(=O)O)NC(=O)[C@H]([C@@H](C)O)NC(=O)[C@H](C(C)C)NC(=O)[C@H](CC2CCCCC2)NC(=O)[C@H](CCN)NC(=O)[C@@H](CC(C)C)NC(=O)[C@H](CCCN)NC1=O [Compound 1184] and CC[C@H](C)[C@@H]1NC(=O)[C@H](Cc2ccc(-c3ccccc3)cc2)NC(=O)[C@H](C(C)C)NC(=O)[C@H](Cc2cccc(C)c2)NC(=O)[C@H](CC(=O)O)NC(=O)[C@H](Cc2ccc(C(=O)O)cc2)NC(=O)[C@H](Cc2ccncc2)NC(=O)CSC[C@@H](C(=O)N[C@@H](CCCCN)C(=O)NCCCCCCCCCCC(=O)O)NC(=O)[C@H]([C@@H](C)O)NC(=O)[C@H](C(C)C)NC(=O)[C@H](CC2CCCCC2)NC(=O)[C@H](CCN)NC(=O)[C@@H](CC(C)C)NC(=O)[C@H](CCCN)NC1=O [Compound 1185] are within 0.2 log units of each other in pIC50: 7.29 for the first, 7.35 for the second.

First: CC[C@H](C)[C@@H]1NC(=O)[C@H](Cc2ccc(-c3ccccc3)cc2)NC(=O)[C@H](C(C)C)NC(=O)[C@H](Cc2cccc(C)c2)NC(=O)[C@H](CC(=O)O)NC(=O)[C@H](Cc2ccc(C(=O)O)cc2)NC(=O)[C@H](Cc2ccncc2)NC(=O)CSC[C@@H](C(=O)N[C@@H](CCCNC(=N)N)C(=O)NCCCCCCCCCCC(=O)O)NC(=O)[C@H]([C@@H](C)O)NC(=O)[C@H](C(C)C)NC(=O)[C@H](CC2CCCCC2)NC(=O)[C@H](CCN)NC(=O)[C@@H](CC(C)C)NC(=O)[C@H](CCCN)NC1=O [Compound 1186]
Second: CC[C@H](C)[C@@H]1NC(=O)[C@H](Cc2ccc(-c3ccccc3)cc2)NC(=O)[C@H](C(C)C)NC(=O)[C@H](Cc2cccc(C)c2)NC(=O)[C@H](CC(=O)O)NC(=O)[C@H](Cc2ccc(C(=O)O)cc2)NC(=O)[C@H](Cc2ccncc2)NC(=O)CSC[C@@H](C(=O)N[C@@H](Cc2cnc[nH]2)C(=O)NCCCCCCCCCCC(=O)O)NC(=O)[C@H]([C@@H](C)O)NC(=O)[C@H](C(C)C)NC(=O)[C@H](CC2CCCCC2)NC(=O)[C@H](CCN)NC(=O)[C@@H](CC(C)C)NC(=O)[C@H](CCCN)NC1=O [Compound 1187]
The pIC50 of the first is 0.21 log units lower: 6.99 for the first, 7.20 for the second. The second is the more potent here.

CC[C@H](C)[C@@H]1NC(=O)[C@H](Cc2ccc(-c3ccccc3)cc2)NC(=O)[C@H](C(C)C)NC(=O)[C@H](Cc2cccc(C)c2)NC(=O)[C@H](CC(=O)O)NC(=O)[C@H](Cc2ccc(C(=O)O)cc2)NC(=O)[C@H](Cc2ccncc2)NC(=O)CSC[C@@H](C(=O)NCCOCCOCC(=O)N[C@@H](CCN)C(=O)NCCCCCCCCCCC(=O)O)NC(=O)[C@H]([C@@H](C)O)NC(=O)[C@H](C(C)C)NC(=O)[C@H](CC2CCCCC2)NC(=O)[C@H](CCN)NC(=O)[C@@H](CC(C)C)NC(=O)[C@H](CCCN)NC1=O [Compound 1189] ({CH2CO}-[4Pal][Phe(4-COOH)]D[Phe(3-Me)]V[Bip]I[Orn][dL][Dab][Cha]VTC[AEEA][Dab][Aun]-OH; thioether N-14) and CC[C@H](C)[C@@H]1NC(=O)[C@H](Cc2ccc(-c3ccccc3)cc2)NC(=O)[C@H](C(C)C)NC(=O)[C@H](Cc2cccc(C)c2)NC(=O)[C@H](CC(=O)O)NC(=O)[C@H](Cc2ccc(C(=O)O)cc2)NC(=O)[C@H](Cc2ccncc2)NC(=O)CSC[C@@H](C(=O)NCCOCCOCC(=O)N[C@@H](CCCN)C(=O)NCCCCCCCCCCC(=O)O)NC(=O)[C@H]([C@@H](C)O)NC(=O)[C@H](C(C)C)NC(=O)[C@H](CC2CCCCC2)NC(=O)[C@H](CCN)NC(=O)[C@@H](CC(C)C)NC(=O)[C@H](CCCN)NC1=O [Compound 1190] ({CH2CO}-[4Pal][Phe(4-COOH)]D[Phe(3-Me)]V[Bip]I[Orn][dL][Dab][Cha]VTC[AEEA][Orn][Aun]-OH; thioether N-14) are within 0.2 log units of each other in pIC50: 7.63 for the first, 7.61 for the second.
